Consider two compounds from publication PMC2395260 (Genome Biology, 2008).

Where two headings read alike, the source gives them in different places.

For assay [1], the system named is HCV subgenomic replicon (genotype 1b) harboring the V36G mutant in Huh-7.5 cells. As to the kind of experiment: Two-day HCV replicon assay, V36G mutant. The class given is cell-based, hepatitis C virus genotype 1b. Conditions: for IC50: Hepatitis C virus, Huh7.5, 48 h, read-out: IC50 (HCV RNA level in replicon cells reduced by 50%); for viral suppression in V36G mutant replicon assay in comparison to wild-type replicon assay: V36G versus wild-type replicon, genotype 1b, 48 h. As for the experimental part: Only the SCH 503034 inhibitor is lacking the cyclopropyl group (Figure 1). We used a wild-type HCV replicon assay (genotype 1b) and an assay harboring the V36G mutant for in vitro testing. Detailed information on experimental procedures is given in Materials and methods.
SCH 503034 was synthesized by Schering-Plough Corporation (Kenilworth, NJ, USA), dissolved in dimethyl sulfoxide as a 19 mM solution. Both compounds were stored at 4°C.
The plasmid pFKI389neo/NS3-3'/ET contains HCV subgenomic replicon sequences derived from HCV genotype 1b and an upstream T7 promoter for in vitro RNA synthesis. The point mutation was generated with the QuikChange II XL Site-Directed Mutagenesis Kit (Stratagene, La Jolla, CA, USA). The plasmid was linearized with ScaI and purified by phenol chloroform extraction. The linearized and purified plasmid was transcribed by using a T7 RNA polymerase (Promega, Madison, WI, USA) according to the manufacturer's instructions. All of the plasmids and RNAs were checked for purity and integrity by standard procedures.
Huh-7.5 cells were cultured in Dulbecco's modified Eagle's medium (DMEM; Invitrogen, Carlsbad, CA, USA) containing 10% fetal bovine serum (FBS; PAA Laboratories GmbH, Pasching, Germany) and 2 mM L-glutamine. The cells were transfected with an in vitro-transcribed subgenomic HCV replicon RNA. The wild-type sequence was identical to that of the pFKI389neo/NS3-3'/ET replicon. Stable cells containing the self-replicating HCV replicon were selected and maintained in the presence of 750 μg of G418 (Invitrogen) per ml and were used for HCV replicon assays.
HCV replicon cells were plated in a 6-well plate at a density of 2 × 10^5 cells per well in DMEM with 10% FBS. On the following day (24 h later), the culture medium was replaced with DMEM containing either no compound as a control or compounds serially diluted in the presence of 10% FBS and 750 μg/ml G418. After the cells were incubated with the compounds for 48 h, the intracellular RNA was extracted with an RNeasy kit (Qiagen, Valencia, CA, USA). The level of HCV RNA was determined by a real-time quantitative reverse transcription-PCR (RT-PCR) assay (Taqman) with a pair of HCV-specific primers (5'-[…]-3' and 5'-[…]-3'), an HCV-specific probe (5'-6FAM-[…] XT-PH-3), and an ABI Prism 7000 sequence detection system (Applied Biosystems, Foster City, CA, USA).
(In general: A replicon is a self-replicating genome or part of one, used to study replication in cells.)

Assay [2] relates to NS3-4A protease T54A mutant. Conditions: cited from earlier work.
For assay [3], the system named is NS3-4A protease R155G/I/K/L/M/S/T mutants. Conditions: cited from earlier work.
Assay [4] deals with NS3-4A protease A156S mutant. Conditions: cited from earlier work.
In assay [5] the test system is NS3-4A protease T54S mutant. Conditions: cited from earlier work.
For assay [6], the system named is wild-type NS3-4A protease, HCV genotype 1a (HCV-H). Conditions: HCV genotype 1a reference strain HCV-H; cited from earlier work.
Assay [7] concerns NS3-4A protease A156I/T/V mutants. Conditions: range over A156I/T/V mutants; cited from earlier work.
For another assay, the system named is HCV genotype 1. Conditions: phase 1b clinical trial, after treatment duration of 24 hours; cited from earlier work.
The subject of assay [8] is NS3-4A protease V36A/G/L/M mutants. Conditions: cited from earlier work.

For orientation: IC50 means the point on the concentration scale where inhibition reaches its midpoint.

`CC(C)(C)NC(=O)N[C@H](C(=O)N1C[C@H]2[C@@H]([C@H]1C(=O)NC(CC1CCC1)C(=O)C(N)=O)C2(C)C)C(C)(C)C` (some centres unmarked) [SCH 503034, boceprevir]: in assay [1], the IC50 is < 5000 nM and the “viral suppression in V36G mutant replicon assay in comparison to wild-type replicon assay” value is recorded as “nearly equally effective”.
With `CCC[C@H](NC(=O)[C@@H]1[C@H]2CCC[C@H]2CN1C(=O)[C@@H](NC(=O)[C@@H](NC(=O)c1cnccn1)C1CCCCC1)C(C)(C)C)C(=O)C(=O)NC1CC1` [VX-950, telaprevir], the IC50 is 749 nM in [2]; ~5000 nM in [1]; 538 nM in assay [3] (R155G/I/K/L/M/S/T mutants, read-out: IC50 mean); 275 to 1050 nM in assay [3] (range over R155G/I/K/L/M/S/T mutants, read-out: IC50 range); 1400 nM in [4]; 120 nM in assay [5]. Also, the IC50 was 70 nM in assay [6]; 12500 to 50000 nM in assay [7]; 226 nM in [8] (V36A/G/L/M mutants, read-out: IC50 mean); 110 to 444 nM in [8] (range over V36A/G/L/M mutants, read-out: IC50 range). In [1], the “viral suppression in V36G mutant replicon assay in comparison to wild-type replicon assay” value is listed as “considerably delayed”. The “HCV RNA decline” value with HCV genotype 1 was “above 3 log”.
